Here are results for eleven molecules from patent publication US20120071475A1, “UREA DERIVATIVES HAVING PI3K-INHIBITING ACTIVITY” (SHIONOGI & CO., LTD., priority 2009, published 2012).

The structures appear in SMILES notation. Where two headings read alike, the source gives them in different places.

Series [1] relates to CYP1A2, CYP2C9, CYP2C19, CYP2D6 and CYP3A4 (one value for the five species). The experiment in a line: CYP inhibition test, five CYP species together (5CYPs_IC50; pooled human liver microsome). Format: in vitro ADME. From the text:
O-de-ethylation of 7-ethoxyresorufin (CYP1A2), methyl-hydroxylation of tolbutamide (CYP2C9), 4′-hydroxylation of mephenyloin (CYP2C19), O-demethylation of dextromethorphan (CYP2D6), and hydroxylation of terfenadine (CYP3A4), which are typical substrate for metabolic reactions of human main CYP5 molecular species (CYP1A2, 2C9, 2C19, 2D6, and 3A4), were adopted as indexes.
The reaction conditions are as follows: substrate: 0.5 μmol/L of ethoxyresorufin (CYP1A2), 100 μmol/L of tolbutamide (CYP2C9), 50 μmol/L of S-mephenyloin (CYP2C19), 5 μmol/L of dextromethorphan (CYP2D6), and 1 μmol/L of terfenadine (CYP3A4); reaction time; 15 minutes; reaction temperature: 37° C.; enzyme: pooled human liver microsome 0.2 mg protein/mL; test drug concentration: 1, 5, 10, and 20 μmol/L (4 points).
In a 96-well plate, as a reaction solution, five kinds of substrates, a human liver microsome, and a test drug were added to 50 mmol/L Hepes buffer solution in the aforementioned ratio. A coenzyme NADPH was added to start a metabolic reaction, which is an index. After reacting at 37° C. for 15 minutes, a solution of methanol/acetonitrile (1/1 (v/v)) was added to quench the reaction. After centrifugation at 3000 rpm for 15 minutes, resorufin (CYP1A2 metabolite) in the supernatant was quantitated with a fluorescence multilabel counter, and hydroxylated tolbutamide (CYP2C9 metabolite), 4′-hydroxylated mephenyloin (CYP2C19 metabolite), […], terfenadine in alcohol form (CYP3A4 metabolite) were quantitated with LC/MS/MS.
The case wherein only DMSO (a solvent which dissolved a drug) was added to a reaction system was defined as a control (100%). When a test drug solution was added, the remaining activity (%) at each concentration was calculated, and then IC50 was calculated with a concentration and an inhibition ratio by an inverse estimation using a logistic model.
For orientation: Microsomes from liver hold many membrane-bound enzymes, among them those of drug oxidation.

Series [2] is described as follows: Metabolic stability test (pooled human liver microsome). The settings on record: percentage of test compound remained after 30 minutes, pooled human liver microsome 0.5 mg protein/mL, 1 mmol/L NADPH, 37° C., compound 0.5 μM. The format is in vitro ADME. In a few lines: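 Pooled human liver microsomes (0.5 mg protein/mL) incubated with compound and 1 mmol/L NADPH at 37° C. in pH 7.4 Tris buffer for 0 or 30 min. Parent quantified by LC/MS/MS after methanol/acetonitrile quench; value is % remaining at 30 min versus 0 min.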

The next series has as its target T1, hERG channel (IKr) (Homo sapiens, UniProt Q12809).
T1 construct: expressed in transfected cells; host or cells: HEK293
The experiment in a line: hERG test (whole-cell patch-clamp, IKr in HEK293 cells). Format: cell-based. The settings on record: human, HEK293 cells expressing hERG channel, pH 7.4, inhibition of maximum tail current (IKr), compound 1 μM. An outline of the steps: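 hERG-expressing HEK293 cells, automated whole-cell patch clamp: hold −80 mV, +50 mV for 2 s, then −50 mV for 2 s to record IKr tail current. Compound in extracellular solution (pH 7.4) for 10 min at room temperature; inhibition of maximum tail current calculated versus pre-application and compared with 0.1% DMSO vehicle.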
On the technique in general: Block of hERG is tested as a sign of cardiac risk.

The target of another series is PI3Kγ (Homo sapiens, UniProt P48736). The experiment in a line: PI3Kγ inhibitory activity (PI3-kinase HTRF assay, inhibition ratio). The format is biochemical. To be noted: 0.5 h, compound at 10 μmol/L; read-out: PI3Kg Inhibition Ratio % (10 μM). In a few lines:
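Compound at 10 μmol/L preincubated 10 min with PI3Kγ and PIP2 substrate, then reacted with ATP for 30 minutes at room temperature; the compound, substrate and ATP figures as printed (40 μmol/L each) are solution concentrations. HTRF 665/620 nm ratio read after 18 hours. Inhibition ratio calculated against no-compound (100%) and no-enzyme (0%) controls.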
(In general: In TR-FRET formats the signal depends on donor and acceptor labels being close together.)

Another series has as its target T2, CYP3A4 (Homo sapiens, UniProt P08684).
T2 construct: host or cells: E. coli
As to the kind of experiment: CYP3A4 fluorescence MBI test. The format is in vitro ADME. To be noted: difference in IC50 with 0 or 30 minutes pre-reaction; CYP3A4 expressed in E. coli, substrate 7-BFC. In a few lines: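 E. coli-expressed CYP3A4 debenzylating 5.6 μmol/L 7-BFC to fluorescent 7-HFC (Ex 420/Em 535 nm) in K-Pi pH 7.4 at 25° C, 15 min reaction. NADPH pre-incubation of 0 or 30 min, with 10-fold dilution before reaction. IC50 from 0.625–20 μmol/L (6 points); (+) for an IC50 shift ≥5 μmol/L, (−) for ≤3 μmol/L.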

T2 sequence (P08684 whole entry): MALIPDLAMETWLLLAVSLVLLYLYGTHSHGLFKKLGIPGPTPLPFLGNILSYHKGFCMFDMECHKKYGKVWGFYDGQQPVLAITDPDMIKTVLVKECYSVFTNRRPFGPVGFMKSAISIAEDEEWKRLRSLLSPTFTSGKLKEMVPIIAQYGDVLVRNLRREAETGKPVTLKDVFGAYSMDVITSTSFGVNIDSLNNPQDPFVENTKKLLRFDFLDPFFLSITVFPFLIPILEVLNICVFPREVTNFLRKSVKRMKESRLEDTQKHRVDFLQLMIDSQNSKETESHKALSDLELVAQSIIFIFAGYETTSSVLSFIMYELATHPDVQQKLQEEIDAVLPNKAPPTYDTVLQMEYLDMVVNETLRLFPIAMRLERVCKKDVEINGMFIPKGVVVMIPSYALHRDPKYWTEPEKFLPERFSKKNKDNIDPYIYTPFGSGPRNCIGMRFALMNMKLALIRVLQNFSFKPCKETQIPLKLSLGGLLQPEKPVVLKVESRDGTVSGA
Sequence of PI3Kγ (P48736 whole entry, species assumed): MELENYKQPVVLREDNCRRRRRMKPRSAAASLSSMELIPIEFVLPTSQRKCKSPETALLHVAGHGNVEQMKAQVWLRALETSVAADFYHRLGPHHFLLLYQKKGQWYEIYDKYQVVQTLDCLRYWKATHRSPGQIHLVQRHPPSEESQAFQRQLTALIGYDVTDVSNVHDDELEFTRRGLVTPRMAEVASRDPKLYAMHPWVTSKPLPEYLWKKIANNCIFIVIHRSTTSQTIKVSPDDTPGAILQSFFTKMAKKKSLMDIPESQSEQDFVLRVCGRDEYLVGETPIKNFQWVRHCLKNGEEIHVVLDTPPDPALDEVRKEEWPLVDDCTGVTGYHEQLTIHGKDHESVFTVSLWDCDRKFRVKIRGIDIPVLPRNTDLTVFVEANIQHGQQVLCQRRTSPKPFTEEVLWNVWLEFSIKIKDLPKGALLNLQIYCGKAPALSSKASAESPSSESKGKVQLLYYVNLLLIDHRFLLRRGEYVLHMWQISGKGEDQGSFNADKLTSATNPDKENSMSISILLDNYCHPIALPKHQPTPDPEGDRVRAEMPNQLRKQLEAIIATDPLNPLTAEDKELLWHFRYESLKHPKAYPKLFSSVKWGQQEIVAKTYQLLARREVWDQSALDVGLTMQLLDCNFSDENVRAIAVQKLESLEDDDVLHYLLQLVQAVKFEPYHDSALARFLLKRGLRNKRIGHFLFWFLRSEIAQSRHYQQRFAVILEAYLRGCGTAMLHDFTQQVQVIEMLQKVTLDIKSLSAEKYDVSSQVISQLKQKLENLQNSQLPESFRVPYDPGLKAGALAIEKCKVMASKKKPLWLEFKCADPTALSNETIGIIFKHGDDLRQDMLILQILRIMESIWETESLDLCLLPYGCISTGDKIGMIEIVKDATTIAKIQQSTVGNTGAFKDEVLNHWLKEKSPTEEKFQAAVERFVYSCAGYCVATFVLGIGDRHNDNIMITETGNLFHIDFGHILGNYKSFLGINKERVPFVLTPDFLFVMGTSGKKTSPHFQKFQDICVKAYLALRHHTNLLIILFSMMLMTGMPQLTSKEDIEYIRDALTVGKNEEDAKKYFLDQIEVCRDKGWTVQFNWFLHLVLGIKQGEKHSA
T1 sequence (Q12809 whole entry): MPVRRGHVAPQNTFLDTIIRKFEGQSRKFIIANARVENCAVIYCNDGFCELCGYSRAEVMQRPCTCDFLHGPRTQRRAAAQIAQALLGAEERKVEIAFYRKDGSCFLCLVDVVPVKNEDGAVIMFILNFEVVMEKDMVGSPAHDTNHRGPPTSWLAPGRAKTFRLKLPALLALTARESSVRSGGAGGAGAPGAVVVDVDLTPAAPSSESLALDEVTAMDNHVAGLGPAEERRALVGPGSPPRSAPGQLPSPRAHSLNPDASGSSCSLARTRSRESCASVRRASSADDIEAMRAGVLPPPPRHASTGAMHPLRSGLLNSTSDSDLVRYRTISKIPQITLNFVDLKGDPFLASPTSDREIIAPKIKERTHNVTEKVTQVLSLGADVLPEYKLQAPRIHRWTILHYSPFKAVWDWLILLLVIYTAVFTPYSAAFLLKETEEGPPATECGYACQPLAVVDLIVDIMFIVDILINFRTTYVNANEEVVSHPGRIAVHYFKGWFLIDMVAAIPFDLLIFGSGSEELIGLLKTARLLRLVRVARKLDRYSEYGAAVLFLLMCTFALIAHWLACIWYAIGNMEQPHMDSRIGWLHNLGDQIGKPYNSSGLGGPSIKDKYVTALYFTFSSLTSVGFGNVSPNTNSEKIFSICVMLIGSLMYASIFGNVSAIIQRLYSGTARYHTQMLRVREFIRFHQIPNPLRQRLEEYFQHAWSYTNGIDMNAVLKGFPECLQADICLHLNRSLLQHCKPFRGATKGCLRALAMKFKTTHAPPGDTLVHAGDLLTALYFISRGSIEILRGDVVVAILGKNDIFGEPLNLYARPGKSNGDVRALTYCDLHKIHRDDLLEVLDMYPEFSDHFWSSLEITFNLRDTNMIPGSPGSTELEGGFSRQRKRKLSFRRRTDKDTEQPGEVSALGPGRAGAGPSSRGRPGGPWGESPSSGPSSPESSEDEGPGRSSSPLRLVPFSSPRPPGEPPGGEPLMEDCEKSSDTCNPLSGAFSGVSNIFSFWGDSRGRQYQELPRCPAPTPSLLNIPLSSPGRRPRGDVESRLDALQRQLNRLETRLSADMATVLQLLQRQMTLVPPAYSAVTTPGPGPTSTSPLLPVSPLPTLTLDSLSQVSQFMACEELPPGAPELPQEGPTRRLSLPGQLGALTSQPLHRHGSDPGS

`COc1cc(N2CCc3nc(NC(=O)Nc4ccccc4C(=O)NC(C)C)sc3C2)cc(OC)n1` [Compound I-63] registered an IC50 at 15 min in series [1] (human, microsomes) greater than 20 µM. Moreover, the “hLMS_ox(at 0.5 μM) %” value in series [2] worked out at 80.1%. Moreover, the inhibition at 10 min, 1 µM on hERG channel (IKr) was 2.7%. The inhibition at 10 µM at PI3Kγ is no less than 95%.

In series [1] (human, microsomes), `Cc1cc(N2CCc3nc(NC(=O)Nc4ccccc4C(=O)NCC#N)sc3C2)nc(Cl)n1` [Compound I-172] returned an IC50 at 15 min of no less than 10 µM. In addition, the MBI entry on CYP3A4 is “(−) (When 3 μmol/L or less, the compound is shown as (−))”. Besides, the “hLMS_ox(at 0.5 μM) %” value in series [2] worked out at 98%. In addition, the inhibition at 10 µM on PI3Kγ is no less than 95%.

In turn, `COc1cc(N2CCc3nc(NC(=O)Nc4ccccc4C(C)=O)sc3C2)nc(OC)n1` [Compound I-9] came in with an IC50 at 15 min in series [1] (human, microsomes) of no less than 10 µM. In addition, the MBI entry on CYP3A4 is listed as “(−) (When 3 μmol/L or less, the compound is shown as (−))”. Besides, the inhibition at 10 µM at PI3Kγ is 93%.

In series [1] (human, microsomes), `COCCNC(=O)c1ccccc1NC(=O)Nc1nc2c(s1)CN(c1cc(OC)nc(OC)n1)CC2` [Compound I-86] had an IC50 at 15 min of no less than 10 µM. In addition, at CYP3A4, the MBI entry is recorded as “(−) (When 3 μmol/L or less, the compound is shown as (−))”. On PI3Kγ, the inhibition at 10 µM was no less than 95%.

In turn, `O=C(Nc1nc2c(s1)CN(c1cncc(C(F)(F)F)c1)CC2)Nc1ccccc1C(=O)NC(CO)CO` [Compound I-173] displayed an IC50 at 15 min in series [1] (human, microsomes) of no less than 10 µM. Besides, the MBI result at CYP3A4 is recorded as “(−) (When 3 μmol/L or less, the compound is shown as (−))”. Also, the inhibition at 10 µM on PI3Kγ was found to be 71%.

Take `CC(C)NC(=O)c1ccccc1NC(=O)Nc1nc2c(s1)CN(c1ccc(S(C)(=O)=O)cc1)CC2` [Compound I-204]: the IC50 at 15 min in series [1] (human, microsomes) is greater than 20 µM. The MBI entry on CYP3A4 is recorded as “(−) (When 3 μmol/L or less, the compound is shown as (−))”. Moreover, the inhibition at 10 µM on PI3Kγ was no less than 95%.

The molecule `COc1cc(N2CCc3nc(NC(=O)Nc4ccccc4C(=O)NCC#N)sc3C2)nc(OC)n1` [Compound I-90] had an IC50 at 15 min in series [1] (human, microsomes) of no less than 10 µM. The MBI result at CYP3A4 is “(−) (When 3 μmol/L or less, the compound is shown as (−))”. The “hLMS_ox(at 0.5 μM) %” value in series [2] was 83.4%.

For the molecule `COc1cc(N2CCc3nc(NC(=O)Nc4ccccc4C(=O)O)sc3C2)nc(OC)n1.Cl.Cl` [Compound I-5], in series [1] (pooled human liver microsomes, one value for five species (CYP1A2, 2C9, 2C19, 2D6, 3A4), pooled human liver microsome 0.2 mg protein/mL, 15 minutes, 37° C., test drug 1-20 μmol/L, read-out: 5CYPs_IC50), the IC50 at 15 min is no less than 10 µM. In addition, at CYP3A4, the MBI result was “(−) (When 3 μmol/L or less, the compound is shown as (−))”. In addition, the inhibition at 10 µM at PI3Kγ was determined as 85%.

With `COc1cc(N2CCc3nc(NC(=O)Nc4ccccc4C(=O)NCCC#N)sc3C2)nc(OC)n1` [Compound I-89], the IC50 at 15 min in series [1] (human, microsomes) was no less than 10 µM. In addition, at CYP3A4, the MBI entry is “(−) (When 3 μmol/L or less, the compound is shown as (−))”. Moreover, in series [2], the “hLMS_ox(at 0.5 μM) %” value was 93.6%. Further, the inhibition at 10 µM on PI3Kγ is no less than 95%.

`CC(C)NC(=O)c1ccccc1NC(=O)Nc1nc2c(s1)CN(c1ccc(C#N)cc1)CC2` [Compound I-209] displayed an IC50 at 15 min in series [1] (human, microsomes) of no less than 10 µM. The MBI result at CYP3A4 is recorded as “(−) (When 3 μmol/L or less, the compound is shown as (−))”. The inhibition at 10 µM at PI3Kγ is no less than 95%.

In the case of `COc1cc(C2CCc3nc(NC(=O)Nc4ccccc4C(=O)NC(C)C)sc3C2)nc(OC)n1` (stereo not shown) [Compound I-60], the IC50 at 15 min in series [1] (human, microsomes) is greater than 20 µM. Further, the “hLMS_ox(at 0.5 μM) %” value in series [2] is on record as 81.9%. Moreover, the inhibition at 10 min, 1 µM against hERG channel (IKr) came to 3.6%. The inhibition at 10 µM on PI3Kγ is no less than 95%.
